{
  "source": "patent US20220264913A1",
  "about": "“MULTIFUNCTIONAL EXTRACTS OF SUGARCANE STRAW OR BAGASSE AND USES THEREOF” (UNIVERSIDADE CATÓLICA PORTUGUESA - UCP, priority 2019, published 2022)",
  "format_in_all_cases": "cell-based",
  "details_in_all_cases": "extracts 50% ethanol, ND = inhibition not detected",
  "key": {"[1]": {"system": "E. coli", "test": "MIC/MBC determination, E. coli", "procedure": "(§1) The antimicrobial activity of the extracts was evaluated by measuring the minimum inhibitory concentration (MIC) and the minimum bactericidal concentration (MBC) of the extracts using the methods of the clinical and laboratory standards institute for aerobic (M07-A9) and anaerobic bacteria (M11-A8). From a previously filtered 3% stock solution a series of extract dilutions were prepared (2%, 1.5%, 1%, 0.75%, 0.5%, 0.25%, 0.125%, and 0.0625% (w/v)). A commonly used preservative, 2-phenoxyethanol was tested under the same conditions as a positive control.\n(§2) MHB growth media was used for aerobic microorganisms and Wilkins Chalgren Broth (WCB) was used for anaerobic microorganisms. The microorganisms were inoculated at 2% (v/v) from an inoculum with 0.5 McFarland standard (ca. 10^8 CFU/mL) and then adjusted in order to obtain a final inoculum of 10^5 CFU/mL in the testing solutions. […] The OD of each well (experimental and control) was measured each hour at 660 nm. […] Afterwards, the concentrations for which no growth was detected were plated in MHA and Wilkins Chalgren Agar (WCA) accordingly, in order to verify the MBC. MBC and MIC were determined by the analysis of maximum absorbance registered, delay of the exponential phase entry, and the calculation of the specific growth rate. […]"}, "[2]": {"system": "MSSA", "test": "MIC/MBC determination, MSSA", "procedure": "as §1, §2"}, "[3]": {"system": "C. albicans", "test": "MIC/MBC determination, C. albicans", "procedure": "as §1, §2"}, "[4]": {"system": "P. aeruginosa", "test": "MIC/MBC determination, P. aeruginosa", "procedure": "as §1, §2"}},
  "data": [
    {"smiles": "OCCOc1ccccc1", "note": "[Phenoxyethanol, 2-phenoxyethanol]", "values": [
      {"measurement": "MBC", "setting": "[1]", "result": 3, "unit": "%"},
      {"measurement": "MBC", "setting": "[2]", "result": 0.3, "unit": "%"},
      {"measurement": "MBC", "setting": "[3]", "result": 3, "unit": "%"},
      {"measurement": "MBC", "setting": "[4]", "result": 0.3, "unit": "%"}
    ]}
  ]
}
